# From patent publication US20230263822A1, “MODULATION OF FACTOR 11 EXPRESSION” (Ionis Pharmaceuticals, Inc., priority 2008, published 2023)
# Strand notation (5' to 3'): a small letter for the sugar, then the base; units joined by * are phosphorothioate-linked, units joined directly phosphodiester-linked; [ ] holds rarer units or linkages, { } end groups; capitals alone tell only the bases. e = 2'-O-(2-methoxyethyl) (MOE); [5mC] = 5-methylcytosine; d = 2'-deoxy (DNA)
# Key:
# human Factor 11 mRNA = assay: Dose-dependent inhibition of human Factor 11 in HepG2 cells, electroporation 375-12,000 nM (Example 32); type: cell-based; details: for Percent inhibition of Factor 11 mRNA at 375 nM / Percent inhibition of Factor 11 mRNA at 750 nM / IC50: electroporation; for Percent inhibition of Factor 11 mRNA at 375 nM / Percent inhibition of Factor 11 mRNA at 750 nM / Percent inhibition of Factor 11 mRNA at 1,500 nM / Percent inhibition of Factor 11 mRNA at 3,000 nM / Percent inhibition of Factor 11 mRNA at 6,000 nM / Percent inhibition of Factor 11 mRNA at 12,000 nM: approx. 16 hours, relative to untreated control cells; for Percent inhibition of Factor 11 mRNA at 1,500 nM: electroporation, 1,500 nM; for Percent inhibition of Factor 11 mRNA at 3,000 nM: electroporation, 3,000 nM; for Percent inhibition of Factor 11 mRNA at 6,000 nM: electroporation, 6,000 nM; for Percent inhibition of Factor 11 mRNA at 12,000 nM: electroporation, 12,000 nM; for IC50: Factor 11 mRNA expression
# Method: These gapmers were tested at various doses in HepG2 cells. Cells were plated at a density of 20,000 cells per well and transfected using electroporation with 375 nM, 750 nM, 1,500 nM, 3,000 nM, 6,000 nM and 12,000 nM concentrations of antisense oligonucleotide, as specified in Table 47. After a treatment period of approximately 16 hours, RNA was isolated from the cells and Factor 11 mRNA levels were measured by quantitative real-time PCR. Human Factor 11 primer probe set RTS 2966 was used to measure mRNA levels. Factor 11 mRNA levels were adjusted according to total RNA content, as measured by RIBOGREEN. Results are presented as percent inhibition of Factor 11, relative to untreated control cells.
# ISIS 416850, ISIS 416858, ISIS 445522, and ISIS 445531 (see Table 45 above) were re-tested in vitro along with the microwalk gapmers under the same conditions described above.
# The first two listed gapmers in Table 47 are the original gapmers (ISIS 416850 and ISIS 416858) from which the remaining gapmers were designed via microwalk and are designated by an asterisk.
# Factor 11 mRNA = Factor 11 mRNA in cynomolgus monkey liver, day 55 (Example 46); type: in vivo, cynomolgus monkeys; details: 25 mg/kg subcutaneously, primer probe set LTS00301
# Method: (§1) Groups, each consisting of two male and two female monkeys, were injected subcutaneously with 25 mg/kg of ISIS 416850, ISIS 449709, ISIS 445522, ISIS 449710, ISIS 449707, ISIS 449711, ISIS 449708, 416858, and ISIS 445531. Antisense oligonucleotide was administered to the monkeys at 25 mg/kg three times per week for week 1 and 25 mg/kg twice per week for weeks 2 to 8. A control group, consisting of two male and two female monkeys was injected subcutaneously with PBS according to the same dosing regimen. Body weights were taken 14 days and 7 days before the start of treatment and were then measured weekly throughout the treatment period. Blood samples were collected 14 days and 5 days before the start of treatment and subsequently several times during the dosing regimen for PT and aPTT measurements, and measurement of various hematologic factors. On day 55, the monkeys were euthanized by exsanguination while under deep anesthesia, and organs harvested for further analysis.
# On day 55, RNA was extracted from liver tissue for real-time PCR analysis of Factor 11 using primer probe set LTS00301. Results are presented as percent inhibition of Factor 11, relative to PBS control.
# Factor 11 protein = Factor 11 protein in monkey plasma by sandwich ELISA (Example 46); type: in vivo, cynomolgus monkeys; details: 25 mg/kg subcutaneously
# Method: as §1
# Plasma samples from all monkey groups taken on different days were analyzed by a sandwich-style ELISA assay (Affinity Biologicals Inc.) using an affinity-purified polyclonal anti-Factor 11 antibody as the capture antibody and a peroxidase-conjugated polyclonal anti-Factor 11 antibody as the detecting antibody. Monkey plasma was diluted 1:50 for the assay. Peroxidase activity was expressed by incubation with the substrate o-phenylenediamine. The color produced was quantified using a microplate reader at 490 nm and was considered to be proportional to the concentration of Factor 11 in the samples.
# The results are presented in Table 147, expressed as percentage reduction relative to that of the PBS control.
# [1] = Viscosity of ISIS antisense oligonucleotides, micro-viscometer at 25 °C (Example 47); type: physicochemical; details: for Concentration: concentration of the viscosity sample, UV reading at 260 nM at 85° C.; for Viscosity: in water, micro-viscometer at 25° C., at the concentration of the same line
# Method: The viscosity of antisense oligonucleotides targeting human Factor 11 was measured with the aim of screening out antisense oligonucleotides which have a viscosity more than 40 cP at a concentration of 165-185 mg/mL.
# ISIS oligonucleotides (32-35 mg) were weighed into a glass vial, 120 μL of water was added and the antisense oligonucleotide was dissolved into solution by heating the vial at 50° C. Part of (75 μL) the pre-heated sample was pipetted to a micro-viscometer (Cambridge). The temperature of the micro-viscometter was set to 25° C. and the viscosity of the sample was measured. Another part (20 μL) of the pre-heated sample was pipetted into 10 mL of water for UV reading at 260 nM at 85° C. (Cary UV instrument).
Substance,Percent inhibition of Factor 11 mRNA at 375 nM (human Factor 11 mRNA),Percent inhibition of Factor 11 mRNA at 750 nM (human Factor 11 mRNA),"Percent inhibition of Factor 11 mRNA at 1,500 nM (human Factor 11 mRNA)","Percent inhibition of Factor 11 mRNA at 3,000 nM (human Factor 11 mRNA)","Percent inhibition of Factor 11 mRNA at 6,000 nM (human Factor 11 mRNA)","Percent inhibition of Factor 11 mRNA at 12,000 nM (human Factor 11 mRNA)",IC50 (human Factor 11 mRNA),% inhibition of Factor 11 mRNA in liver relative to the PBS control (Factor 11 mRNA),"Inhibition of Factor 11 protein relative to the PBS control (percentage reduction) (Factor 11 protein; Day 10, plasma)","Inhibition of Factor 11 protein relative to the PBS control (percentage reduction) (Factor 11 protein; Day 17, plasma)","Inhibition of Factor 11 protein relative to the PBS control (percentage reduction) (Factor 11 protein; Day 24, plasma)","Inhibition of Factor 11 protein relative to the PBS control (percentage reduction) (Factor 11 protein; Day 31, plasma)","Inhibition of Factor 11 protein relative to the PBS control (percentage reduction) (Factor 11 protein; Day 38, plasma)","Inhibition of Factor 11 protein relative to the PBS control (percentage reduction) (Factor 11 protein; Day 45, plasma)","Inhibition of Factor 11 protein relative to the PBS control (percentage reduction) (Factor 11 protein; Day 52, plasma)","Inhibition of Factor 11 protein relative to the PBS control (percentage reduction) (Factor 11 protein; Day 55, plasma)","Inhibition of Factor 11 protein relative to the PBS control (percentage reduction) (Factor 11 protein; Day −5, plasma)","Inhibition of Factor 11 protein relative to the PBS control (percentage reduction) (Factor 11 protein; Day −14, plasma)",Concentration [1],Viscosity [1]
449707 (antisense e[5mC]*eA*e[5mC]*eA*dG*dT*dT*dT*d[5mC]*dT*dG*dG*e[5mC]*eA*eG*eG) [compound 449707],7%,35%,63%,73%,85%,91%,1260 nM,47%,16%,19%,21%,29%,28%,35%,29%,32%,0%,0%,166 mg/mL,7 cP
449708 (antisense eA*e[5mC]*eA*dG*dT*dT*dT*d[5mC]*dT*dG*dG*e[5mC]*eA*eG) [compound 449708],0%,0%,22%,33%,61%,85%,4460 nM,46%,7%,15%,3%,14%,9%,2%,6%,6%,0%,1%,188 mg/mL,9 cP
